Reference: patent US20260070945A1, “MACROCYCLIC IMMUNOMODULATORS” (Bristol-Myers Squibb Company, priority 2022, published 2026)
pIC50: −log10 of the molar value. *1 amine or outer side, *2 acyl side, *3 side chain or, on linkers, in order; H or OH if unused. Where a SMILES comes first, the peptide text is derived from it. Bridges are numbered along the chain shown (N, C = ends). [ ]: non-standard residue; d: D form. The star is where a group is joined. Phe(4-COOH) = N[C@@H](Cc1ccc(C(=O)O)cc1)C(=O)O; Bip = N[C@@H](Cc1ccc(-c2ccccc2)cc1)C(=O)O; Phe(3-Me) = Cc1cccc(C[C@H](N)C(=O)O)c1; γGlu = O=C(O)[C@H](CCC(=O)[*:2])N[*:1]; βAsp = O=C(O)[C@H](CC(=O)[*:2])N[*:1]; Cha = N[C@@H](CC1CCCCC1)C(=O)O; Carboxymethyl = O=C(O)C*; NMeA = CN[C@@H](C)C(=O)O; Orn = NCCC[C@H](N)C(=O)O; Aun = NCCCCCCCCCCC(=O)O; Dab = NCC[C@H](N)C(=O)O; Dap = NC[C@H](N)C(=O)O; AEEA = NCCOCCOCC(=O)O

target: T1, PD-1/PD-L1 interaction (PE-labeled human PD-L1-Ig binding to Jurkat cell line over-expressing human PD-1) (Homo sapiens, UniProt Q15116); assay: Jurkat-PD-1 Cell Binding High-Content Screening Assay (CBA); conditions: Jurkat-hPD-1 cells, PE-labeled PD-L1-Ig 20 nM final; read-out: Jurkat HPD1 PDL1 IC50
T1 construct: expressed in transfected cells; host or cells: Jurkat
T1 sequence (Q15116 25-288): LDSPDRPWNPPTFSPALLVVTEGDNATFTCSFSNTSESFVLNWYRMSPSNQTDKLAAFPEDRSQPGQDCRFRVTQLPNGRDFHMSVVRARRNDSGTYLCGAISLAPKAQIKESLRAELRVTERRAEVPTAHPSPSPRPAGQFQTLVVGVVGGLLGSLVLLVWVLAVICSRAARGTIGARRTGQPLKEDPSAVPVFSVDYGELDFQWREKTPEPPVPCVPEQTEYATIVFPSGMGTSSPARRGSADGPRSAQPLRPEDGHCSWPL
Experimental: Example 2: Jurkat-PD-1 Cell Binding High-Content Screening Assay (CBA)
Phycoerythrin (PE) was covalently linked to the Ig epitope tag of human PD-L1-Ig and fluorescently-labeled PD-L1-Ig was used for binding studies with a Jurkat cell line over-expressing human PD-1 (Jurkat-PD-1). Briefly, 8×10^3 Jurkat-hPD-1 cells were seeded into 384 well plates in 20 μl of DMEM supplemented with 10% fetal calf serum. 100 nl of compound was added to cells followed by incubation at 37° C. for 2 hours. Then, 5 μl of PE-labeled PD-L1-Ig (20 nM final), diluted in DMEM supplemented with 10% fetal calf serum. After 1 hour incubation, cells were fixed with […] in dPBS containing 10 μg/ml Hoechst 33342 and then washed 3× in 100 μl dPBS. Data was collected and processed using a Cell Insight NXT High Content Imager and associated software.

Row | Structure (SMILES) | pIC50
1 | Cc1cccc(C[C@@H]2NC(=O)[C@H](CC(=O)O)NC(=O)[C@H](Cc3ccc(C(=O)O)cc3)NC(=O)[C@H](Cc3ccc(OCC(=O)O)cc3)NC(=O)CSC[C@@H](C(=O)NCC(=O)N[C@@H](CCC(=O)O)C(=O)NCCOCCOCC(=O)N[C@@H](CCC(=O)NCCOCCOCC(=O)NCCCCCCCCCCC(=O)O)C(=O)O)NC(=O)[C@H](CO)NC(=O)[C@H](C(C)C)NC(=O)[C@H](CC(C)C)NC(=O)[C@H](CC(N)=O)NC(=O)[C@@H](CC(C)C)NC(=O)[C@H](C)N(C)C(=O)[C@H](C(C)C)NC(=O)[C@H](Cc3ccc(-c4ccccc4)cc3)NC(=O)[C@H](CC(C)C)NC2=O)c1 [Example 1018] ({CH2CO}-Y(Carboxymethyl)[Phe(4-COOH)]D[Phe(3-Me)]L[Bip]V[NMeA][dL]NLVSCGE[AEEA][γGlu][AEEA][Aun]-OH; thioether N-14) | 7.17
2 | Cc1cccc(C[C@@H]2NC(=O)[C@H](CC(=O)O)NC(=O)[C@H](Cc3ccc(C(=O)O)cc3)NC(=O)[C@H](Cc3ccc(OCC(=O)O)cc3)NC(=O)CSC[C@@H](C(=O)NCC(=O)N[C@@H](CC(=O)O)C(=O)NCCOCCOCC(=O)N[C@@H](CCC(=O)NCCOCCOCC(=O)NCCCCCCCCCCC(=O)O)C(=O)O)NC(=O)[C@H](CO)NC(=O)[C@H](C(C)C)NC(=O)[C@H](CC(C)C)NC(=O)[C@H](CC(N)=O)NC(=O)[C@@H](CC(C)C)NC(=O)[C@H](C)N(C)C(=O)[C@H](C(C)C)NC(=O)[C@H](Cc3ccc(-c4ccccc4)cc3)NC(=O)[C@H](CC(C)C)NC2=O)c1 [Example 1019] ({CH2CO}-Y(Carboxymethyl)[Phe(4-COOH)]D[Phe(3-Me)]L[Bip]V[NMeA][dL]NLVSCGD[AEEA][γGlu][AEEA][Aun]-OH; thioether N-14) | 7.23
3 | Cc1cccc(C[C@@H]2NC(=O)[C@H](CC(=O)O)NC(=O)[C@H](Cc3ccc(C(=O)O)cc3)NC(=O)[C@H](Cc3ccc(OCC(=O)O)cc3)NC(=O)CSC[C@@H](C(=O)NCC(=O)N[C@@H](CCC(=O)O)C(=O)NCCOCCOCC(=O)N[C@@H](CC(=O)NCCOCCOCC(=O)NCCCCCCCCCCC(=O)O)C(=O)O)NC(=O)[C@H](CO)NC(=O)[C@H](C(C)C)NC(=O)[C@H](CC(C)C)NC(=O)[C@H](CC(N)=O)NC(=O)[C@@H](CC(C)C)NC(=O)[C@H](C)N(C)C(=O)[C@H](C(C)C)NC(=O)[C@H](Cc3ccc(-c4ccccc4)cc3)NC(=O)[C@H](CC(C)C)NC2=O)c1 [Example 1021] ({CH2CO}-Y(Carboxymethyl)[Phe(4-COOH)]D[Phe(3-Me)]L[Bip]V[NMeA][dL]NLVSCGE[AEEA][βAsp][AEEA][Aun]-OH; thioether N-14) | 7.12
4 | Cc1cccc(C[C@@H]2NC(=O)[C@H](CC(=O)O)NC(=O)[C@H](Cc3ccc(C(=O)O)cc3)NC(=O)[C@H](Cc3ccc(OCC(=O)O)cc3)NC(=O)CSC[C@@H](C(=O)NCC(=O)N[C@@H](CC(=O)O)C(=O)NCCOCCOCC(=O)N[C@@H](CC(=O)NCCOCCOCC(=O)NCCCCCCCCCCC(=O)O)C(=O)O)NC(=O)[C@H](CO)NC(=O)[C@H](C(C)C)NC(=O)[C@H](CC(C)C)NC(=O)[C@H](CC(N)=O)NC(=O)[C@@H](CC(C)C)NC(=O)[C@H](C)N(C)C(=O)[C@H](C(C)C)NC(=O)[C@H](Cc3ccc(-c4ccccc4)cc3)NC(=O)[C@H](CC(C)C)NC2=O)c1 [Example 1022] ({CH2CO}-Y(Carboxymethyl)[Phe(4-COOH)]D[Phe(3-Me)]L[Bip]V[NMeA][dL]NLVSCGD[AEEA][βAsp][AEEA][Aun]-OH; thioether N-14) | 7.12
5 | Cc1cccc(C[C@@H]2NC(=O)[C@H](CC(=O)O)NC(=O)[C@H](Cc3ccc(C(=O)O)cc3)NC(=O)[C@H](Cc3ccc(OCC(=O)O)cc3)NC(=O)CSC[C@@H](C(=O)NCC(=O)N[C@@H](CC(=O)NCCOCCOCC(=O)N[C@@H](CCC(=O)O)C(=O)NCCOCCOCC(=O)NCCCCCCCCCCC(=O)O)C(=O)O)NC(=O)[C@H](CO)NC(=O)[C@H](C(C)C)NC(=O)[C@H](CC(C)C)NC(=O)[C@H](CC(N)=O)NC(=O)[C@@H](CC(C)C)NC(=O)[C@H](C)N(C)C(=O)[C@H](C(C)C)NC(=O)[C@H](Cc3ccc(-c4ccccc4)cc3)NC(=O)[C@H](CC(C)C)NC2=O)c1 [Example 1023] ({CH2CO}-Y(Carboxymethyl)[Phe(4-COOH)]D[Phe(3-Me)]L[Bip]V[NMeA][dL]NLVSCG[βAsp][AEEA]E[AEEA][Aun]-OH; thioether N-14) | 6.92
6 | Cc1cccc(C[C@@H]2NC(=O)[C@H](CC(=O)O)NC(=O)[C@H](Cc3ccc(C(=O)O)cc3)NC(=O)[C@H](Cc3ccc(OCC(=O)O)cc3)NC(=O)CSC[C@@H](C(=O)NCC(=O)N[C@@H](CC(=O)NCCOCCOCC(=O)N[C@@H](CC(=O)O)C(=O)NCCOCCOCC(=O)NCCCCCCCCCCC(=O)O)C(=O)O)NC(=O)[C@H](CO)NC(=O)[C@H](C(C)C)NC(=O)[C@H](CC(C)C)NC(=O)[C@H](CC(N)=O)NC(=O)[C@@H](CC(C)C)NC(=O)[C@H](C)N(C)C(=O)[C@H](C(C)C)NC(=O)[C@H](Cc3ccc(-c4ccccc4)cc3)NC(=O)[C@H](CC(C)C)NC2=O)c1 [Example 1024] ({CH2CO}-Y(Carboxymethyl)[Phe(4-COOH)]D[Phe(3-Me)]L[Bip]V[NMeA][dL]NLVSCG[βAsp][AEEA]D[AEEA][Aun]-OH; thioether N-14) | 7.06
7 | Cc1cccc(C[C@@H]2NC(=O)[C@H](CC(=O)O)NC(=O)[C@H](Cc3ccc(C(=O)O)cc3)NC(=O)[C@H](Cc3ccc(OCC(=O)O)cc3)NC(=O)CSC[C@@H](C(=O)NCC(=O)N[C@@H](CC(=O)NCCOCCOCC(=O)N[C@@H](CC(=O)NCCCCCCCCCCC(=O)O)C(=O)O)C(=O)O)NC(=O)[C@H](CO)NC(=O)[C@H](C(C)C)NC(=O)[C@H](CC(C)C)NC(=O)[C@H](CC(N)=O)NC(=O)[C@@H](CC(C)C)NC(=O)[C@H](C)N(C)C(=O)[C@H](C(C)C)NC(=O)[C@H](Cc3ccc(-c4ccccc4)cc3)NC(=O)[C@H](CC(C)C)NC2=O)c1 [Example 1025] ({CH2CO}-Y(Carboxymethyl)[Phe(4-COOH)]D[Phe(3-Me)]L[Bip]V[NMeA][dL]NLVSCG[βAsp][AEEA][βAsp][Aun]-OH; thioether N-14) | 6.95
8 | Cc1cccc(C[C@@H]2NC(=O)[C@H](CC(=O)O)NC(=O)[C@H](Cc3ccc(C(=O)O)cc3)NC(=O)[C@H](Cc3ccc(OCC(=O)O)cc3)NC(=O)CSC[C@@H](C(=O)NCCOCCOCC(=O)NCCCCCCCCCCC(=O)O)NC(=O)[C@H](CO)NC(=O)[C@H](C(C)C)NC(=O)[C@H](CC(C)C)NC(=O)[C@H](CC(N)=O)NC(=O)[C@@H](CC(C)C)NC(=O)[C@H](C)N(C)C(=O)[C@H](C(C)C)NC(=O)[C@H](Cc3ccc(-c4ccccc4)cc3)NC(=O)[C@H](CC(C)C)NC2=O)c1 [Example 1027] ({CH2CO}-Y(Carboxymethyl)[Phe(4-COOH)]D[Phe(3-Me)]L[Bip]V[NMeA][dL]NLVSC[AEEA][Aun]-OH; thioether N-14) | 7.66
9 | CC(C)C[C@@H]1NC(=O)[C@H](Cc2c[nH]c3ccccc23)NC(=O)[C@H](CC(=O)O)NC(=O)[C@H](Cc2ccc(C(=O)O)cc2)NC(=O)[C@H](Cc2ccc(OCC(=O)O)cc2)NC(=O)CSC[C@@H](C(=O)NCC(=O)N[C@@H](CN)C(=O)NCC(=O)NCCCCCCCCCCC(=O)O)NC(=O)[C@H](CO)NC(=O)[C@H](C(C)C)NC(=O)[C@H](CC2CCCCC2)NC(=O)[C@H](CCN)NC(=O)[C@@H](CC(C)C)NC(=O)[C@H](C)N(C)C(=O)[C@H](C(C)C)NC(=O)[C@H](Cc2ccc(-c3ccccc3)cc2)NC1=O [Example 1028] ({CH2CO}-Y(Carboxymethyl)[Phe(4-COOH)]DWL[Bip]V[NMeA][dL][Dab][Cha]VSCG[Dap]G[Aun]-OH; thioether N-14) | 7.83
10 | CC(C)C[C@@H]1NC(=O)[C@H](Cc2c[nH]c3ccccc23)NC(=O)[C@H](CC(=O)O)NC(=O)[C@H](Cc2ccc(C(=O)O)cc2)NC(=O)[C@H](Cc2ccc(OCC(=O)O)cc2)NC(=O)CSC[C@@H](C(=O)NCC(=O)N[C@@H](CCN)C(=O)NCC(=O)NCCCCCCCCCCC(=O)O)NC(=O)[C@H](CO)NC(=O)[C@H](C(C)C)NC(=O)[C@H](CC2CCCCC2)NC(=O)[C@H](CCN)NC(=O)[C@@H](CC(C)C)NC(=O)[C@H](C)N(C)C(=O)[C@H](C(C)C)NC(=O)[C@H](Cc2ccc(-c3ccccc3)cc2)NC1=O [Example 1029] ({CH2CO}-Y(Carboxymethyl)[Phe(4-COOH)]DWL[Bip]V[NMeA][dL][Dab][Cha]VSCG[Dab]G[Aun]-OH; thioether N-14) | 8.05
11 | CC(C)C[C@@H]1NC(=O)[C@H](Cc2c[nH]c3ccccc23)NC(=O)[C@H](CC(=O)O)NC(=O)[C@H](Cc2ccc(C(=O)O)cc2)NC(=O)[C@H](Cc2ccc(OCC(=O)O)cc2)NC(=O)CSC[C@@H](C(=O)NCC(=O)N[C@@H](CCCN)C(=O)NCC(=O)NCCCCCCCCCCC(=O)O)NC(=O)[C@H](CO)NC(=O)[C@H](C(C)C)NC(=O)[C@H](CC2CCCCC2)NC(=O)[C@H](CCN)NC(=O)[C@@H](CC(C)C)NC(=O)[C@H](C)N(C)C(=O)[C@H](C(C)C)NC(=O)[C@H](Cc2ccc(-c3ccccc3)cc2)NC1=O [Example 1030] ({CH2CO}-Y(Carboxymethyl)[Phe(4-COOH)]DWL[Bip]V[NMeA][dL][Dab][Cha]VSCG[Orn]G[Aun]-OH; thioether N-14) | 7.97
12 | CC(C)C[C@@H]1NC(=O)[C@H](Cc2c[nH]c3ccccc23)NC(=O)[C@H](CC(=O)O)NC(=O)[C@H](Cc2ccc(C(=O)O)cc2)NC(=O)[C@H](Cc2ccc(OCC(=O)O)cc2)NC(=O)CSC[C@@H](C(=O)NCC(=O)N[C@@H](CCCCN)C(=O)NCC(=O)NCCCCCCCCCCC(=O)O)NC(=O)[C@H](CO)NC(=O)[C@H](C(C)C)NC(=O)[C@H](CC2CCCCC2)NC(=O)[C@H](CCN)NC(=O)[C@@H](CC(C)C)NC(=O)[C@H](C)N(C)C(=O)[C@H](C(C)C)NC(=O)[C@H](Cc2ccc(-c3ccccc3)cc2)NC1=O [Example 1031] ({CH2CO}-Y(Carboxymethyl)[Phe(4-COOH)]DWL[Bip]V[NMeA][dL][Dab][Cha]VSCGKG[Aun]-OH; thioether N-14) | 7.97
